Source: patent US20070292888A1, “Methods for Measuring Enzyme Activities in Cells, Blood, Tumors and Tissues” (GEN-PATH PHARMACEUTICALS, INC., priority 2004, published 2007)

Biological target: T1, TK (Homo sapiens, UniProt P29401)
T1 sequence (P29401 1-623): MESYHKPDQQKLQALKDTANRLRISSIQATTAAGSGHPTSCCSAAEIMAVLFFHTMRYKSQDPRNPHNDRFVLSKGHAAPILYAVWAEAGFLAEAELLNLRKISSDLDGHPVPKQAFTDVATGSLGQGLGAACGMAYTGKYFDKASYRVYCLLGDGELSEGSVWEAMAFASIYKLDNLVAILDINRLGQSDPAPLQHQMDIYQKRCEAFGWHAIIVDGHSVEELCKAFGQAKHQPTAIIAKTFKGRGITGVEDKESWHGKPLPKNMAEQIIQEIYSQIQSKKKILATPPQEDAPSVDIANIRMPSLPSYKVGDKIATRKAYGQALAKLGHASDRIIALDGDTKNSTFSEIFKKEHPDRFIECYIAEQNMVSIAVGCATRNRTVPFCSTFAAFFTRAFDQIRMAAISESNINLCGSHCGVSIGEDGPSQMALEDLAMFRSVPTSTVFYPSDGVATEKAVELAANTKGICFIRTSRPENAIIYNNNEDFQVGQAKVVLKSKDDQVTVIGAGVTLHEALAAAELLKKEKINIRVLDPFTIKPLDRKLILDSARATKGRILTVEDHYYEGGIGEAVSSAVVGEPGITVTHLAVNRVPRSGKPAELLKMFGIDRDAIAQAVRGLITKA
Assay: Cell-based TK inhibition in thiamine-depleted media, 96-well format
Set-up: endogenous in cells
Settings: treated cells, 48 hours treatment
Protocol: We determined the IC50 of compounds that inhibit the activity of the TPP utilizing enzymes TK, kGDH and PDH in a convenient 96-well format using an optimized version of the method described in the previous Examples.
The high thiamine levels in conventional cell culture media (e.g., DMEM (12 μM), RPMI (3 μM)) masks the inhibitory effect of such inhibitors. To measure the IC50 of such inhibitors, thus, a thiamine depleted DMEM, containing all the ingredients of normal DMEM except for thiamine (HyClone, custom order), was used. Thiamine-depleted media (TDM) is made up with thiamine-depleted DMEM, 10% FBS, which contains negligible amount of thiamine (estimated to be ˜3-5% nM) and 1% Penicillin-streptomycin.
Log-phase growing cells were trypsinized and resuspended in TDM. Optimization of the initial cell counts is recommended for each cell line to ensure that enzyme activity can be observed at the beginning and that healthy growth can continue. For cell lines that have a doubling time of approximately 24 hours and cellular transketolase levels high enough to be reliably detected with five thousand (5K) cells such as HCT116 and HT1080, 8K cells are recommended.
Media containing 8K cells (95 μl) were used to seed individual wells in a 96-well clear-bottom cell cultured treated sterile plate. […] Enzymatic inhibition was expressed as percent of control wells that were not treated with compounds. […]

Structure (SMILES): Cc1ccc(C[n+]2csc(CCO)c2C)c(N)n1 [N3PT, 3-[(2-amino-6-methyl-3-pyridinyl)methyl]-5-(2-hydroxyethyl)-4-methyl thiazolium]
- IC50: 20 nM
